{
  "source": "patent US20230041563A1",
  "about": "“N-(1,3,4-OXADIAZOL-2-YL)ARYLCARBOXAMIDES OR SALTS THEREOF, PREPARATION METHODS, HERBICIDAL COMPOSITIONS AND USES THEREOF” (priority 2018, published 2023)",
  "test_system": "weeds",
  "test": "Actual control effects and combined effects of mixtures of active ingredients (i) and (ii), stem-leaf treatment, Gowing method",
  "type": "in vivo",
  "details": "20 days",
  "description": "According to the actual control effect and the property of the herbicides, the balance of the formula and other factors, the optimal ratio was determined. In the calculation formula: X represents the fresh weight inhibition rate when the active ingredient (i) is used in an amount of P; and Y represents the fresh weight inhibition rate when the active ingredient (ii) is used in an amount of Q. The statistical results are shown in Tables 9-11 below.",
  "key": {"[1]": {"details": "480 h, Cyperus difformis, (ii) 1.8 g a.i./mu, read-out: Control effect of (ii) alone at corresponding dose"}, "[2]": {"details": "480 h, Cyperus difformis, (ii) 15 g a.i./mu, stem-leaf treatment, read-out: Control effect of (ii) alone at corresponding dose"}, "[3]": {"details": "Cyperus difformis, (ii) 15 g a.i./mu"}, "[4]": {"details": "Monochoria vaginalis, (ii) 1 g a.i./mu"}, "[5]": {"details": "480 h, Echinochloa phyllopogon, (ii) 15 g a.i./mu, stem-leaf treatment, read-out: Control effect of (ii) alone at corresponding dose"}, "[6]": {"details": "Echinochloa phyllopogon, (ii) 3 g a.i./mu"}, "[7]": {"details": "Echinochloa phyllopogon, (ii) 15 g a.i./mu"}, "[8]": {"details": "Echinochloa phyllopogon, (ii) 0.6 g a.i./mu"}, "[9]": {"details": "Echinochloa phyllopogon, (ii) 0.6 g a.i./mu, stem-leaf treatment"}},
  "note": "Like-named read-outs stand apart in the source and are kept apart here.",
  "data": [
    {"molecule": "CCC(=O)Nc1ccc(Cl)c(Cl)c1", "note": "[Propanil]", "values": [
      {"measurement": "pest or weed control at 27 g/ha", "setting": "[1]", "value": 9.2, "unit": "%"},
      {"measurement": "pest or weed control at […]", "setting": "[2]", "value": 46.2, "unit": "%"},
      {"measurement": "Control effect of (ii) alone at corresponding dose", "setting": "[3]", "value": 46.2, "unit": "%"}
    ]},
    {"molecule": "CCCc1ccc2nc(Cl)c(S(=O)(=O)NC(=O)Nc3nc(OC)cc(OC)n3)n2n1", "note": "[Propyrisulfuron]", "values": [
      {"measurement": "Control effect of (ii) alone at corresponding dose", "setting": "Cyperus difformis, (ii) 0.6 g a.i./mu", "value": 19.5, "unit": "%"},
      {"measurement": "Control effect of (ii) alone at corresponding dose", "setting": "Cyperus difformis, (ii) 1.5 g a.i./mu", "value": 46.3, "unit": "%"},
      {"measurement": "Control effect of (ii) alone at corresponding dose", "setting": "Cyperus difformis, (ii) 1.5 g a.i./mu, stem-leaf treatment", "value": 46.3, "unit": "%"}
    ]},
    {"molecule": "C#CCN(C)c1c(C#N)cnn1-c1nn2c(c1Cl)CCCC2", "note": "[Pyraclonil]", "values": [
      {"measurement": "Control effect of (ii) alone at corresponding dose", "setting": "Sagittaria trifolia L., (ii) 0.6 g a.i./mu", "value": 9.3, "unit": "%"},
      {"measurement": "Control effect of (ii) alone at corresponding dose", "setting": "Sagittaria trifolia L., (ii) 15 g a.i./mu", "value": 72.5, "unit": "%"},
      {"measurement": "Control effect of (ii) alone at corresponding dose", "setting": "Sagittaria trifolia, (ii) 15 g a.i./mu, stem-leaf treatment", "value": 72.5, "unit": "%"}
    ]},
    {"molecule": "CCOC(=O)c1cnn(C)c1S(=O)(=O)NC(=O)Nc1nc(OC)cc(OC)n1", "note": "[Pyrazosulfuron-ethyl]", "values": [
      {"measurement": "Control effect of (ii) alone at corresponding dose", "setting": "[4]", "value": 75.6, "unit": "%"},
      {"measurement": "pest or weed control at 9 g/ha", "setting": "Pontederia vaginalis, 480 h, Monochoria vaginalis, (ii) 0.6 g a.i./mu, read-out: Control effect of (ii) alone at corresponding dose", "value": 54.5, "unit": "%"},
      {"measurement": "pest or weed control at 15 g/ha", "setting": "Pontederia vaginalis, 480 h, Monochoria vaginalis, (ii) 1 g a.i./mu, stem-leaf treatment, read-out: Control effect of (ii) alone at corresponding dose", "value": 75.6, "unit": "%"}
    ]},
    {"molecule": "CCCCCCCCSC(=O)Oc1cc(Cl)nnc1-c1ccccc1", "note": "[Pyridate]", "values": [
      {"measurement": "pest or weed control at 27 g/ha", "setting": "[1]", "value": 12.9, "unit": "%"},
      {"measurement": "pest or weed control at […]", "setting": "[2]", "value": 53.2, "unit": "%"},
      {"measurement": "Control effect of (ii) alone at corresponding dose", "setting": "[3]", "value": 53.2, "unit": "%"}
    ]},
    {"molecule": "Cn1nc(C(F)(F)F)c(CS(=O)(=O)C2=NOC(C)(C)C2)c1OC(F)F", "note": "[Pyroxasulfone]", "values": [
      {"measurement": "Control effect of (ii) alone at corresponding dose", "setting": "Monochoria vaginalis, (ii) 9 g a.i./mu", "value": 34.5, "unit": "%"},
      {"measurement": "pest or weed control at […]", "setting": "Pontederia vaginalis, 480 h, Monochoria vaginalis, (ii) 0.5 g a.i./mu, read-out: Control effect of (ii) alone at corresponding dose", "value": 6.3, "unit": "%"},
      {"measurement": "pest or weed control at 135 g/ha", "setting": "Pontederia vaginalis, 480 h, Monochoria vaginalis, (ii) 9 g a.i./mu, stem-leaf treatment, read-out: Control effect of (ii) alone at corresponding dose", "value": 34.5, "unit": "%"}
    ]},
    {"molecule": "O=C(O)c1c(Cl)ccc2cc(Cl)cnc12", "note": "[Quinclorac]", "values": [
      {"measurement": "pest or weed control at 45 g/ha", "setting": "480 h, Echinochloa phyllopogon, (ii) 3 g a.i./mu, stem-leaf treatment, read-out: Control effect of (ii) alone at corresponding dose", "value": 35.2, "unit": "%"},
      {"measurement": "pest or weed control at […]", "setting": "[5]", "value": 52.9, "unit": "%"},
      {"measurement": "Control effect of (ii) alone at corresponding dose", "setting": "[6]", "value": 35.2, "unit": "%"},
      {"measurement": "Control effect of (ii) alone at corresponding dose", "setting": "[7]", "value": 52.9, "unit": "%"}
    ]},
    {"molecule": "O=C1CCCC(=O)C1C(=O)c1c(Cl)ccc2cc(Cl)cnc12", "note": "[Quintrione]", "values": [
      {"measurement": "Control effect of (ii) alone at corresponding dose", "setting": "Digitaria sanguinalis, (ii) 3 g a.i./mu, stem-leaf treatment", "value": 15.2, "unit": "%"},
      {"measurement": "Control effect of (ii) alone at corresponding dose", "setting": "[6]", "value": 15.8, "unit": "%"},
      {"measurement": "Control effect of (ii) alone at corresponding dose", "setting": "Echinochloa phyllopogon, (ii) 3 g a.i./mu, stem-leaf treatment", "value": 15.8, "unit": "%"},
      {"measurement": "Control effect of (ii) alone at corresponding dose", "setting": "Echinochloa phyllopogon, (ii) 30 g a.i./mu", "value": 66.7, "unit": "%"},
      {"measurement": "Control effect of (ii) alone at corresponding dose", "setting": "Echinochloa phyllopogon, (ii) 30 g a.i./mu, stem-leaf treatment", "value": 66.7, "unit": "%"}
    ]},
    {"molecule": "Cc1nn(C)cc1C(=O)Oc1c(C(=O)c2ccc(C(F)(F)F)cc2S(C)(=O)=O)c(C)nn1C", "note": "[Shuangzuocaotong]", "values": [
      {"measurement": "Control effect of (ii) alone at corresponding dose", "setting": "Digitaria sanguinalis, (ii) 8 g a.i./mu, stem-leaf treatment", "value": 75.1, "unit": "%"},
      {"measurement": "Control effect of (ii) alone at corresponding dose", "setting": "[8]", "value": 7.8, "unit": "%"},
      {"measurement": "Control effect of (ii) alone at corresponding dose", "setting": "[9]", "value": 7.8, "unit": "%"},
      {"measurement": "Control effect of (ii) alone at corresponding dose", "setting": "Echinochloa phyllopogon, (ii) 8 g a.i./mu", "value": 70.9, "unit": "%"},
      {"measurement": "Control effect of (ii) alone at corresponding dose", "setting": "Echinochloa phyllopogon, (ii) 8 g a.i./mu, stem-leaf treatment", "value": 70.9, "unit": "%"}
    ]},
    {"molecule": "CCNc1nc(NCC)nc(SC)n1", "note": "[Simetryn]", "values": [
      {"measurement": "pest or weed control at 9 g/ha", "setting": "480 h, Echinochloa phyllopogon, (ii) 0.6 g a.i./mu, stem-leaf treatment, read-out: Control effect of (ii) alone at corresponding dose", "value": 20.8, "unit": "%"},
      {"measurement": "pest or weed control at […]", "setting": "[5]", "value": 45.3, "unit": "%"},
      {"measurement": "Control effect of (ii) alone at corresponding dose", "setting": "[8]", "value": 20.8, "unit": "%"},
      {"measurement": "Control effect of (ii) alone at corresponding dose", "setting": "[7]", "value": 45.3, "unit": "%"}
    ]},
    {"molecule": "CS(=O)(=O)c1ccc(C(=O)C2C(=O)CCCC2=O)c(Cl)c1COCC1CCCO1", "note": "(centres unmarked) [Tefuryltrione]", "values": [
      {"measurement": "Control effect of (ii) alone at corresponding dose", "setting": "Cyperus difformis, (ii) 1 g a.i./mu", "value": 37.4, "unit": "%"},
      {"measurement": "Control effect of (ii) alone at corresponding dose", "setting": "Cyperus difformis, (ii) 1 g a.i./mu, stem-leaf treatment", "value": 37.4, "unit": "%"},
      {"measurement": "Control effect of (ii) alone at corresponding dose", "setting": "Cyperus difformis, (ii) 1.8 g a.i./mu", "value": 63.2, "unit": "%"}
    ]},
    {"molecule": "CCNc1nc(Cl)nc(NC(C)(C)C)n1", "note": "[Terbuthylazine]", "values": [
      {"measurement": "pest or weed control at 9 g/ha", "setting": "480 h, Echinochloa phyllopogon, (ii) 0.6 g a.i./mu, read-out: Control effect of (ii) alone at corresponding dose", "value": 0.95, "unit": "%"},
      {"measurement": "pest or weed control at […]", "setting": "[5]", "value": 18.6, "unit": "%"},
      {"measurement": "Control effect of (ii) alone at corresponding dose", "setting": "[7]", "value": 18.6, "unit": "%"}
    ]},
    {"molecule": "COc1nc(OC)nc(C(=O)c2cccc(F)c2N(C)S(=O)(=O)C(F)F)n1", "note": "[Triafamone]", "values": [
      {"measurement": "Control effect of (ii) alone at corresponding dose", "setting": "Monochoria vaginalis, (ii) 0.5 g a.i./mu", "value": 16.3, "unit": "%"},
      {"measurement": "Control effect of (ii) alone at corresponding dose", "setting": "Monochoria vaginalis, (ii) 0.5 g a.i./mu, stem-leaf treatment", "value": 16.3, "unit": "%"},
      {"measurement": "Control effect of (ii) alone at corresponding dose", "setting": "[4]", "value": 29.6, "unit": "%"},
      {"measurement": "Control effect of (ii) alone at corresponding dose", "setting": "Monochoria vaginalis, (ii) 1 g a.i./mu, stem-leaf treatment", "value": 29.6, "unit": "%"}
    ]},
    {"molecule": "Oxadiargyl", "values": [
      {"measurement": "Control effect of (ii) alone at corresponding dose", "setting": "[8]", "value": 3.4, "unit": "%"},
      {"measurement": "Control effect of (ii) alone at corresponding dose", "setting": "[9]", "value": 3.4, "unit": "%"},
      {"measurement": "Control effect of (ii) alone at corresponding dose", "setting": "[7]", "value": 35.3, "unit": "%"},
      {"measurement": "Control effect of (ii) alone at corresponding dose", "setting": "Echinochloa phyllopogon, (ii) 15 g a.i./mu, stem-leaf treatment", "value": 35.3, "unit": "%"}
    ]},
    {"molecule": "Sanzuohuangcaotong", "values": [
      {"measurement": "Control effect of (ii) alone at corresponding dose", "setting": "Monochoria vaginalis, (ii) 3 g a.i./mu", "value": 21.5, "unit": "%"},
      {"measurement": "Control effect of (ii) alone at corresponding dose", "setting": "Monochoria vaginalis, (ii) 3 g a.i./mu, stem-leaf treatment", "value": 21.5, "unit": "%"},
      {"measurement": "Control effect of (ii) alone at corresponding dose", "setting": "Monochoria vaginalis, (ii) 6 g a.i./mu", "value": 40.1, "unit": "%"}
    ]}
  ]
}
